Assay results reported in patent publication US20160168140A1, “HETEROCYCLIC COMPOUNDS AS ANTIBIOTIC POTENTIATORS” (priority 2014, published 2016).

The molecules below were run on Acinetobacter baumannii (Ab23) (assay: MIC shift assay of antibiotics (broth microdilution)). Conditions: compound concentration 2 μM; fold shift of colistin MIC; nc = no changeover or no shift.
Format: cell-based
Experimental: Minimum inhibitory concentration (MIC) shift assays were performed to determine if the test compounds could alter the MIC of existing antibacterial drugs (e.g., ciprofloxacin and colistin) for E. coli, Acinetobacter baumannii, Klebsiella pneumoniae, Pseudomonas aeruginosa, and Enterobacter cloacae. The MIC shift assay is based on the standard broth microdilution MIC determination protocol of Wiegand et al, Nat Protoc. 3(2):163-75 (2008), with slight modifications that allow for the screening of up to seven test compounds in a single plate.
On the day before an assay, bacteria were grown overnight in cation-adjusted Mueller Hinton broth (CAMHB; Teknova, Hollister, Calif.) at 37° C. in an orbital shaker and sub-cultured at a 1:200 dilution the following morning. The cells were grown to OD600=0.5 to 0.8 and then diluted to OD600=0.01. From a serial dilution of each antibiotic at (50 μL of 2× concentrated stock solutions) several concentrations were added to the wells of a sterile, transparent round-bottom 96-well plate (Phenix Research Products, Candler, N.C.), and diluted cells (50 μL) were added to the plates for a starting OD600 of 0.005. […] A row of wells lacking test compound but containing the antibiotic was used to determine the MIC of that antibiotic alone. A column of wells lacking both antibiotic and test compound served as a growth control, and an additional column containing only CAMHB was included as a sterile blank control.
The plates were incubated for 18 to 20 h at 37° C. in an orbital shaker, and the cell density (OD600) was determined the following day in a microplate reader (PolarStar Optima, BMG Labtech). The MIC shift was determined by comparing the MIC of the antibiotic alone to the MIC of the antibiotic plus test compound.

Colistin MIC shift, Ab23 at (compd concentration), 8-16x:
Cc1cccc2c(NCCCN(C)C)nc(-c3cc(-c4ccncc4)cc(C(F)(F)F)c3)nc12 [compound 336]

Same assay, conditions: compound concentration 4 μM; fold shift of colistin MIC; nc = no changeover or no shift

Colistin MIC shift, Ab23 at (compd concentration), 64x:
3,3′-(propane-2,2-diyl)bis(5,6-dichloro-1H-indole) [compound 461]
CCC(N)C(=O)n1cc(-c2ccc(Cl)c(Cl)c2)c2cc(Cl)ccc21 (centres unmarked) [362f]

Colistin MIC shift, Ab23 at (compd concentration), 2-8x:
CCN(CC)CCCC(C)Nc1nc(/C=C/c2ccc(Cl)c(Cl)c2)nc2c(Br)cccc12 (racemic) [compound 316]

Colistin MIC shift, Ab23 at (compd concentration), 32x:
CCC(N)C(=O)n1cc(/C=C/c2ccc(Cl)c(Cl)c2)c2cc(Br)ccc21 (centres unmarked) [362d]
CN(C)CC(=O)n1cc(/C=C/c2ccc(Cl)c(Cl)c2)c2cc(Br)ccc21 [362e]
Cc1cccc2c(NCCN(C)C)nc(-c3cc(-c4ccccc4)cc(C(F)(F)F)c3)nc12 [524f]

Colistin MIC shift, Ab23 at (compd concentration), 16-32x:
Cc1c(-c2ccccc2)ccc2c(NCCCN(C)C)nc(-c3cc(Br)cc(C(F)(F)F)c3)nc12 [524d]

Colistin MIC shift, Ab23 at (compd concentration), 16x:
CCN(CC)CCCC(C)Nc1nc(/C=C/c2ccc(Cl)c(Cl)c2)nc2c(C(F)(F)F)cccc12 (racemic) [compound 312]
CCN(CC)CCCC(C)Nc1nc(-c2cn(Cc3cccc(Cl)c3)c3c(Cl)cccc23)nc2c(C)cccc12 (racemic) [compound 578]
CN1CCN(CC(=O)n2cc(-c3ccc(Cl)c(Cl)c3)c3cc(Cl)ccc32)CC1 [362g]
Cc1cccc2c(NCCCN(C)C)nc(-c3cc(-c4ccccn4)cc(C(F)(F)F)c3)nc12 [524b]
Cc1cc(Br)cc2c(NCCCN(C)C)nc(-c3cc(Br)cc(C(F)(F)F)c3)nc12 [524g]
CN(C)CCCNc1nc(/C=C/c2ccc(Cl)c(Cl)c2)nc2c([N+](=O)[O-])cccc12 [compound 302]
CN(C)CCCNc1nc(/C=C/c2cc(C(F)(F)F)c(C(F)(F)F)cc2C(F)(F)F)nc2c(C(F)(F)F)cccc12 [compound 331]
CN(C)CCCNc1nc(/C=C/c2ccc(F)c(C(F)(F)F)c2)nc2c(C(F)(F)F)cccc12 [compound 332]
CN(C)CCCNc1nc(/C=C/c2cc(Cl)ccc2Cl)nc2c(C(F)(F)F)cccc12 [compound 335]

Colistin MIC shift, Ab23 at (compd concentration), 8-16x:
CN(C)CCCN(C)c1nc(/C=C/c2ccc(Cl)c(Cl)c2)nc2cc(Cl)c(Cl)cc12 [compound 327]

Colistin MIC shift, Ab23 at (compd concentration), 8x:
CCN(CC)CCCC(C)Nc1nc(/C=C/c2ccc(Cl)c(Cl)c2)nc2c([N+](=O)[O-])cccc12 (racemic) [compound 314]
CCN(CC)CCCC(C)Nc1nc(-c2cn(Cc3ccccc3)c3c(Cl)cccc23)nc2c(Cl)cccc12 (racemic) [compound 566]
CCN(CC)CCCC(C)Nc1nc(-c2cn(Cc3ccc(Cl)cc3)c3c(Cl)cccc23)nc2c(C)cccc12 (racemic) [compound 576]
CCN(CC)CCCC(C)Nc1nc(-c2cn(Cc3ccccc3)c3c(Cl)cccc23)nc2cc(Cl)ccc12 (racemic) [compound 584]
COc1ccc2c(NCCCN(C)C)nc(/C=C/c3ccc(Cl)c(Cl)c3)nc2c1C [335a]
CN(C)CCOC(=O)n1cc(-c2ccc(Cl)c(Cl)c2)c2cc(Cl)ccc21 [362a]
CCN(CC)CCCC(C)Nc1nc(/C=C/c2ccc(Cl)c(Cl)c2)nc2c(C)cccc12 (centres unmarked) [compound 313]
CN(C)CCCNc1nc(/C=C/c2ccc(F)c(Cl)c2)nc2c(C(F)(F)F)cccc12 [compound 329]

Colistin MIC shift, Ab23 at (compd concentration), 4x:
CCN(CC)CCCC(C)Nc1nc(/C=C/c2ccc3ccccc3c2)nc2cc(Cl)ccc12 (racemic) [compound 305]
CCN(CC)CCCC(C)Nc1nc(/C=C/c2ccc(Cl)c(Cl)c2)nc2cc(Cl)ccc12 (racemic) [compound 325]
CCN(CC)CCCC(C)Nc1nc(-c2cn(Cc3ccccc3)c3c(Cl)cccc23)nc2c(F)cccc12 (racemic) [compound 564]
CCN(CC)CCCC(C)Nc1nc(-c2cn(Cc3ccccc3)c3c(Cl)cccc23)nc2c(Br)cccc12 (racemic) [compound 568]
CCN(CC)CCCC(C)Nc1nc(-c2cn(Cc3ccc(C)cc3)c3c(Cl)cccc23)nc2c(C)cccc12 (racemic) [compound 572]
CCNCCCC(C)Nc1nc(-c2cn(Cc3ccccc3)c3c(Cl)cccc23)nc2c(C)cccc12 (racemic) [compound 581]
Cc1c(-c2ccccc2)ccc2c(NCCCN(C)C)nc(-c3cc(-c4ccccc4)cc(C(F)(F)F)c3)nc12 [524e]

Colistin MIC shift, Ab23 at (compd concentration), 2x:
CCN(CC)CCCC(C)Nc1nc(/C=C/c2ccc(Cl)c(Cl)c2)nc2ccc(Cl)cc12 (racemic) [compound 317]
CCN(CC)CCCC(C)Nc1nc(/C=C/c2ccc(Cl)c(Cl)c2)nc2ccc(Br)cc12 (racemic) [compound 318]
CCN(CC)CCCC(C)Nc1nc(/C=C/c2ccc(Cl)c(Cl)c2)nc2c(F)cccc12 (racemic) [compound 319]
CCN(CC)CCCC(C)Nc1nc(/C=C/c2ccc(Cl)c(Cl)c2)nc2c(Cl)cccc12 (racemic) [compound 320]
Cc1cccc2c(NCCCN(C)C)nc(-c3cc(-c4cncnc4)cc(C(F)(F)F)c3)nc12 [524c]
CN(C)CCCNc1nc(/C=C/c2ccc(F)c(F)c2)nc2c(C(F)(F)F)cccc12 [compound 330]

Colistin MIC shift, Ab23 at (compd concentration), 4-8x:
CCN(CC)CCCC(C)Nc1nc(/C=C/c2ccc(Cl)c(Cl)c2)nc2cc(C(F)(F)F)ccc12 (racemic) [compound 315]

Colistin MIC shift, Ab23 at (compd concentration), 128x:
Cc1cccc2c(NCCCN)nc(-c3cccc(-c4cc(C(F)(F)F)ccc4F)c3)nc12 [491a]
Cc1cccc2c(NCCCN)nc(-c3cc(Br)cc(C(F)(F)F)c3)nc12 [524a]
Cc1cccc2c(NCCCN)nc(-c3cc(-c4ccccc4)cc(C(F)(F)F)c3)nc12 [524i]
Cc1cccc2c(NCCCN)nc(-c3cc(-c4ccccc4Cl)cc(C(F)(F)F)c3)nc12 [524m]

Same assay, conditions: compound concentration 8 μM; fold shift of colistin MIC; nc = no changeover or no shift

Colistin MIC shift, Ab23 at (compd concentration), 2x:
CN(C)CCn1nc(-c2ccc(Cl)c(Cl)c2)c2ccc(C(F)(F)F)cc21 [559c]

Colistin MIC shift, Ab23 at (compd concentration), 8x:
CN(C)CCCn1nc(-c2ccc(Cl)c(Cl)c2)c2ccc(C(F)(F)F)cc21 [559a]
CN(C)CC(=O)n1nc(-c2ccc(Cl)c(Cl)c2)c2ccc(C(F)(F)F)cc21 [559b]
CN(C)CCCNc1nc(/C=C/c2ccc(Br)cc2)nc2cc(Cl)ccc12 [compound 301]

Colistin MIC shift, Ab23 at (compd concentration), 4x:
CCN(CC)CCCC(C)Nc1nc(/C=C/c2cccc(Br)c2)nc2cc(Cl)ccc12 (racemic) [compound 306]
CCN(CC)CCCC(C)Nc1nc(/C=C/c2ccc(C(F)(F)F)cc2)nc2cc(Cl)ccc12 (racemic) [compound 307]

Same assay, conditions: compound concentration 10 μM; fold shift of colistin MIC; nc = no changeover or no shift

Colistin MIC shift, Ab23 at (compd concentration), 2x:
CCN(CC)CCCC(C)Nc1nc(-c2cn(Cc3ccccc3)c3c(Cl)cccc23)nc2c(-c3ccncc3)cccc12 (racemic) [compound 570]

Colistin MIC shift, Ab23 at (compd concentration), 4x:
CCN(CC)CCCC(C)Nc1nc(/C=C/c2ccc(C(=O)OC)cc2)nc2cc(Cl)ccc12 (racemic) [compound 309]

Colistin MIC shift, Ab23 at (compd concentration), 8x:
CCN(CC)CCCC(C)Nc1nc(/C=C/c2ccc(Cl)cc2)nc2cc(Cl)ccc12 (racemic) [compound 310]
CCN(CC)CCCC(C)Nc1nc(/C=C/c2ccc(Cl)c(Cl)c2)nc2cc(F)c(F)cc12 (racemic) [compound 321]
CCN(CC)CCCC(C)Nc1nc(-c2cn(Cc3ccccc3)c3c(Cl)cccc23)nc2ccccc12 (racemic) [compound 562]
CCN(CC)CCCC(C)Nc1nc(-c2cn(Cc3cccc(C)c3)c3c(Cl)cccc23)nc2c(C)cccc12 (racemic) [compound 574]
